Assays:
[1] = tested on: A549; assay: Cytotoxicity against human A549 cells assessed as growth inhibition after 72 hrs by MTT assay; assay type: functional, cell-based; conditions: A549, 72 h
[2] = Cytotoxicity against human HCT116 cells assessed as growth inhibition after 72 hrs by MTT assay; assay type: functional, cell-based; conditions: HCT-116, 72 h
[3] = tested on: MDA-MB-231; assay: Cytotoxicity against human MDA-MB-231 cells assessed as growth inhibition after 72 hrs by MTT assay; assay type: functional, cell-based; conditions: MDA-MB-231, 72 h
[4] = tested on: HCT-116; assay: Induction of apoptosis in human HCT116 cells assessed as apoptotic cells at 5 uM after 24 hrs by annexin V-FITC/propidium iodide staining based flow cytometric analysis; assay type: functional
[5] = tested on: HCT-116; assay: Induction of apoptosis in human HCT116 cells assessed as apoptotic cells at 5 uM after 48 hrs by annexin V-FITC/propidium iodide staining based flow cytometric analysis; assay type: functional

SMILES	IC50 [1] [µM]	IC50 [2] [µM]	IC50 [3] [µM]	Activity [4] [%]	Activity [5] [%]
CC1=NN(c2ccccc2)C(=O)[C@]12C(=O)C=CC[C@H]2c1cccc(C)c1	13.1	9.58	10.3		
COc1cccc2c1C(=O)c1c(O)c3c(c(O)c1C2=O)C[C@@](O)(C(=O)CO)C[C@@H]3O[C@H]1C[C@H](N)[C@H](O)[C@H](C)O1 [DOXORUBICIN]			0.45		
CC1=NN(c2ccccc2)C(=O)[C@]12C(=O)C=CC[C@@H]2c1ccccc1 (racemic)	9.18	6.04	9.08		
CC1=NN(c2ccccc2)C(=O)[C@@]12C(=O)C=CC[C@H]2c1cccc(C)c1	3.5	5.82	6.61		
CC1=NN(c2ccccc2)C(=O)[C@]12C(=O)C=CC[C@H]2c1ccc(C)cc1	2.89	4.22	5.72		
O=C(CCCCCCC(=O)Nc1ccccc1)NO [VORINOSTAT]				42.2	62.4
CC1=NN(c2ccccc2)C(=O)[C@@]12C(=O)C=CC[C@@H]2c1ccc(C)cc1 (racemic)	6.57	5.22	7.42		
CC1=NN(c2ccc(C)cc2)C(=O)[C@]12C(=O)C=CC[C@H]2c1ccc(C)cc1	7.52	3.53	8.28		
CC1=NN(c2ccccc2)C(=O)[C@]12C(=O)C=CC[C@@H]2c1ccc(C)cc1 (racemic)	8.6	5.8	6.24		
COc1ccccc1[C@@H]1CC=CC(=O)[C@]12C(=O)N(c1ccccc1)N=C2C	3.96	2.85	5.14	68.44	72.13
CC1=NN(c2ccccc2)C(=O)[C@]12C(=O)C=CC[C@@H]2c1cccc(C)c1 (racemic)	4.77	5.49	8		
CC1=NN(c2ccc(C)cc2)C(=O)[C@]12C(=O)C=CC[C@@H]2c1ccc(C)cc1 (racemic)	54.2	14.6	57.2		
CC1=NN(c2ccccc2)C(=O)[C@]12C(=O)C=CC[C@H]2c1ccccc1	8.29	5.3	5.8		
CC1=NN(c2ccc(C)cc2)C(=O)[C@@]12C(=O)C=CC[C@H]2c1ccc(C)cc1	6.79	3.62	9.2		
CC1=NN(c2ccccc2)C(=O)[C@]12C(=O)C=CC[C@H]2c1ccccc1[N+](=O)[O-]	12.9	11.2	32.4		
CC1=NN(c2ccccc2)C(=O)[C@@]12C(=O)C=CC[C@@H]2c1ccccc1[N+](=O)[O-] (racemic)	66.4	66.8	68.3		
COc1ccccc1[C@H]1CC=CC(=O)[C@@]12C(=O)N(c1ccccc1)N=C2C (racemic)	18.7	13.9	15.7		
CC1=NN(c2ccccc2)C(=O)[C@@]12C(=O)C=CC[C@H]2c1ccc(C)cc1	6.09	5.21	8.3		
CC1=NN(c2ccccc2)C(=O)[C@@]12C(=O)C=CC[C@H]2c1ccccc1	3.77	4.4	5.5		
CC1=NN(c2ccccc2)C(=O)[C@@]12C(=O)C=CC[C@@H]2c1cccc(C)c1 (racemic)	4.51	3.8	6.8		
CC1=NN(c2ccccc2)C(=O)[C@@]12C(=O)C=CC[C@@H]2c1ccccc1 (racemic)	7.77	6.07	9.31		
CC1=NN(c2ccc(C)cc2)C(=O)[C@@]12C(=O)C=CC[C@@H]2c1ccc(C)cc1 (racemic)	4.32	4.15	8.12		
